Test results as given in patent publication US11225475B2, “Substituted pyridines as inhibitors of histone deacetylase” (Alkermes, Inc., priority 2017, dated 2022).

Assays:
HDAC2 [1] = biological target: T1, HDAC2 (Homo sapiens (Human), UniProt Q92769); assay: HDAC2 enzymatic assay (deacetylation of peptide substrate, Caliper LabChip); format: biochemical; conditions: reaction time 17 hours, 25° C.
Description: (§1) The following describes an assay protocol for measuring the deacetylation of a peptide substrate by the enzymes HDAC2 or HDAC1. Enzyme, substrate, and cofactors are combined in a well of a microtiter plate and incubated for […] at 25° C. At the end of the incubation, the reaction is quenched by the addition of an SDS-containing buffer. Substrate and product are separated and quantified electrophoretically using the microfluidic-based LabChip 3000 Drug Discovery System from Caliper Life Sciences. The peptide substrate used in this assay is FAM-TSRHK(AC)KL-CONH2 (FAM is carboxyfluorescein). Peptide should be >98% purity by Capillary Electrophoresis. • 1. To a well of a 384-well plate, add 5 μL of 2× enzyme buffer. Using Labcyte Echo 550, add 100 nl compound. Enzyme and compound may be pre-incubated at this time if desired. • 2. Add 5 μL of 2× substrate buffer. • 3. Incubate plate at 25° C. for 17 hours. • 4. Terminate reaction by adding 40 μL of 1.55× stop buffer. • 5. Create job on a Caliper LabChip® 3000 Drug Discovery System. • 6. Load the plate and start electrophoresis using blue laser (480 nm) for excitation and green CCD (520 nm) for detection (CCD2). Reaction time=17 hours; Reaction temperature=25° C.
(§2) 1% DMSO (from compound) 1 μM FAM-TSRHK(AC)KL-CONH2 5 nM HDAC Enzyme (specific activity may vary from lot-to-lot, and enzyme concentration may need to be adjusted to yield ˜10-20% conversion of substrate to product).
(§3) Substrate and product peptides present in each sample are separated electrophoretically using the LabChip 3000 capillary electrophoresis instrument. As substrate and product peptides are separated, two peaks of fluorescence are observed. Change in the relative fluorescence intensity of the substrate and product peaks is the parameter measured, reflecting enzyme activity. Capillary electrophoregramms (RDA acquisition files) are analyzed using HTS Well Analyzer software (Caliper Life Sciences). The enzyme activity in each sample is determined as the product to sum ratio (PSR):P/(S+P), where P is the peak height of the product peptide and S is the peak height of the substrate peptide. For each compound, enzyme activity is measured at various concentrations (12 concentrations of compound spaced by 3× dilution intervals). Negative control samples (0%-inhibition in the absence of inhibitor) and positive control samples (100%-inhibition, in the presence of 20 mM EDTA) are assembled in replicates of four and are used to calculate %-inhibition values for each compound at each concentration. Percent inhibition (Pinh) is determined using following equation: Pinh=(PSR0%−PSRinh)/(PSR0%−PSR100%)*100, where PSRinh is the product sum ratio in the presence of inhibitor, PSR0% is the average product sum ration in the absence of inhibitor and PSR100% is the average product sum ratio in 100%-inhibition control samples.
(§4) The IC50 values of inhibitors are determined by fitting the inhibition curves (Pinh versus inhibitor concentration) by 4 parameter sigmoidal dose-response model using XLfit 4 software (MDS).

[2] = system: human erythroid (CFU-E, BFU-E) progenitors; assay: Erythroid CFU assay (human bone marrow clonogenic progenitors); format: cell-based; conditions: for Erythroid % control remaining @ 10 uM dose: 14 days in culture
Description: (§5) Clonogenic progenitors of human erythroid (CFU-E, BFU-E), granulocyte-monocyte (CFU-GM) and multipotential (CFU-GEMM) lineages were assessed in a semi-solid methylcellulose-based media formulation containing rhIL-3 (10 ng/mL), rhGM-SCF (10 ng/mL), rhSCF (50 ng/mL) and Epo (3 U/mL).
(§6) Normal human bone marrow light density cells derived from normal bone marrow (NorCal Biologics, California) and qualified at ReachBio, were stored in the gaseous phase of liquid nitrogen (−152° C.) until required for the assay. On the day of the experiment, the cells were thawed rapidly, the contents of each vial was diluted in 10 mL of Iscove's modified Dulbecco's medium containing 10% fetal bovine serum (IMDM+10% FBS) and washed by centrifugation (approximately 1200 r.p.m. for 10 minutes, room temperature). The supernatant was discarded and the cell pellets resuspended in a known volume of IMDM+10% FBS. A cell count (3% glacial acetic acid) and viability assessment (trypan blue exclusion test) was performed for the bone marrow sample.
(§7) On the day of the experiment, the compounds were dissolved in DMSO to a stock concentration of 10 mM. Serial dilutions were prepared from the stock concentration to achieve concentrations of 2 and 0.4 mM. When added to the methylcellulose-based media at 1:1000 (v/v), the final test concentrations of 10, 2 and 0.4 μM were achieved. Additionally, 5-FU was evaluated at 1.0, 0.1 and 0.01 μg/mL.
(§8) Clonogenic progenitors of the human erythroid (CFU-E and BFU-E) and myeloid (CFU-GM) lineages were set up in the methylcellulose-based media formulations described above. All compounds were added to the medium to give the final desired concentrations ([…] 5-Fluorouracil (Sigma Aldrich) was used as a positive control for progenitor proliferation (inhibition of colony growth) and was introduced to the human bone marrow cultures at 1.0, 0.1, and 0.01 μg/mL. Solvent control cultures (containing no compound but 0.1% DMSO) as well as standard controls (containing no compound and no DMSO) were also initiated.
(§9) Human myeloid and erythroid progenitor assays were initiated at 2.0×10^4 cells per culture. Following 14 days in culture, myeloid and erythroid colonies were assessed microscopically and scored by trained personnel. The colonies were divided into the following categories based on size and morphology: CFU-E, BFU-E, CFU-GM and CFU-GEMM.
(§10) The mean±one standard deviation of three replicate cultures was calculated for progenitors of each category (CFU-E, BFU-E, etc.). Two-tailed t-tests were performed to assess if there was a difference in the number of colonies generated between solvent control and treated cultures. Due to the potential subjectivity of colony enumeration, a p value of less than 0.01 is deemed significant. To calculate the concentration of 50% inhibition of colony growth (IC50) for each compound, a dose response curve was generated plotting the log of the compound concentration versus the percentage of control colony growth using XLfit software (IDBS). The concentration of 50% inhibition of colony growth (IC50) was calculated based on the sigmoid curve fit using Dose-Response, One-Site Model formula: y=A+[(B−A)/(1+((C/x)^D))], where A=the initial value (baseline response), B=maximum response, C=center (drug concentration that provokes a response halfway between A and B) and D=slope of the curve at midpoint. Further, plots and additional dose response curves were generated using GraphPad Prism 7.0.
(§11) Erythroid (CFU-E and BFU-E), myeloid (CFU-GM) and multi-potential (CFU-GEMM) colony enumeration was performed by trained personnel. The distribution of colony types as well as general colony and cellular morphology was analyzed. For statistical analysis colony numbers in compound treated cultures were compared to the solvent control cultures. […] The experiment was used to evaluate the potential effect of test compounds on human erythroid and myeloid progenitor proliferation in a methylcellulose-based medium. […]

HDAC2 [3] = biological target: T1, HDAC2; assay: HDAC2 enzymatic inhibition assay in SH-SY5Y cell lysate (HDAC-Glo 2); format: cell-based; conditions: SH-SY5Y cells, five hours incubation
Description: SH-SY5Y cells (Sigma) were cultured in Eagle's Modified Essential Medium supplemented with 10% fetal bovine serum and pen/strep. Twenty-four hours prior to compound dosing 20 uL of cells were plated in white 384 well plates at a density of 1,500 cells/well. Compounds were serially diluted in neat DMSO and then diluted 1:100 v/v into media without FBS and mixed. Media was removed from the plated cells and the diluted compounds in serum free media (1% v/v final DMSO) were added and incubated at 37.0 for five hours. Ten uL of HDAC-Glo 2 reagent with 0.1% Triton X-100 was then added, the plate was mixed and allowed to develop at room temperature for 100 minutes. Plates were then read with a Spectramax LMax luminometer employing a 0.4s integration time. Dose response curves were constructed with normalized data where CI-994 at 100 uM was defined as 100% inhibition and DMSO alone as 0% inhibition.

HDAC1 = HDAC1 (Homo sapiens (Human), UniProt Q13547); assay: HDAC1 enzymatic assay (deacetylation of peptide substrate, Caliper LabChip); format: biochemical; conditions: reaction time 17 hours, 25° C.
Description: as §1, §2, §3, §4

[4] = system: human myeloid (CFU-GM) progenitors; assay: Myeloid CFU assay (human bone marrow clonogenic progenitors); format: cell-based; conditions: 14 days in culture
Description: as §5, §6, §7, §8, §9, §10, §11

T1 sequence (Q92769 whole entry): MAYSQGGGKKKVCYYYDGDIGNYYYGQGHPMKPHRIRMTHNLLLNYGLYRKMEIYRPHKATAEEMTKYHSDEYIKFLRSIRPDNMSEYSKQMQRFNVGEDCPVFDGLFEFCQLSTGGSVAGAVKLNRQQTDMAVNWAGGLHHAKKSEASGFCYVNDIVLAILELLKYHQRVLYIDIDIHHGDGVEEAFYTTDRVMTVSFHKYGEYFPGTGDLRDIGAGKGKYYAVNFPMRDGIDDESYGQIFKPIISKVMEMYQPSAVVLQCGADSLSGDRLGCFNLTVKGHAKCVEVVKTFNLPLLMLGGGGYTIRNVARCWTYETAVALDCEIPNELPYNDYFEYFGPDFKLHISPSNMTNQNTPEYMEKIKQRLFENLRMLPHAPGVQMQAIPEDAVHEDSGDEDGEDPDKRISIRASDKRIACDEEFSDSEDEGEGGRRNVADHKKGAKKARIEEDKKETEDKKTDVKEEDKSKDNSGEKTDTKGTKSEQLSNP
Chain of HDAC1 (Q13547 whole entry): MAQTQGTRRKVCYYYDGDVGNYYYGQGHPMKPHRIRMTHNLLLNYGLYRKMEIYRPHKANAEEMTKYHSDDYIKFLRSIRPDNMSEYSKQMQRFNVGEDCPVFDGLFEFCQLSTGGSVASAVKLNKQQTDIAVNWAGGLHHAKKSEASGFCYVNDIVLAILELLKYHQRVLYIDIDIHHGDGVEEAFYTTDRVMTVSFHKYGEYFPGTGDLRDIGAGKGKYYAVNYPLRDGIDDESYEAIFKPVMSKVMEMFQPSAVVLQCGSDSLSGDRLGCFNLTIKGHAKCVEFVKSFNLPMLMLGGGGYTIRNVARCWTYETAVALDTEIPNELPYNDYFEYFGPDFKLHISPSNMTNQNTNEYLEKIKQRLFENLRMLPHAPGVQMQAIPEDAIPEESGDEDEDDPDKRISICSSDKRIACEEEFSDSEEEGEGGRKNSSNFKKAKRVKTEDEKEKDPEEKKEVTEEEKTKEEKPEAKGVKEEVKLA

Compound	IC50 (HDAC2 [1]) [nM]	Erythroid % control remaining @ 10 uM dose [2] [%]	IC50 (HDAC2 [3]) [nM]	IC50 (HDAC1) [nM]	Myeloid % control remaining @ 10 uM dose [4] [%]	inhibitory effects as positive control for toxicity ([2]; erythroid and myeloid progenitor assays, 1.0, 0.1 and 0.01 μg/mL)
COCc1cc2c(cn1)CN(C(=O)Nc1nc(-c3ccccc3F)ccc1N)C2 [Compound 9]	500 to 5000	87	100 to 1000	100 to 500	102	
Cc1cc2c(cn1)CN(C(=O)Nc1nc(-c3ccc(F)cc3F)ccc1N)C2 [Compound 1]	100 to 500	53	100 to 1000	100 to 500	100	
COCc1ccc2c(n1)CN(C(=O)Nc1nc(-c3ccc(F)cc3F)ccc1N)C2 [Compound 2]	500 to 5000	62	1000 to 1500	100 to 500	92	
Cc1ncc2c(n1)CN(C(=O)Nc1nc(-c3ccc(F)cc3F)ccc1N)C2 [Compound 5]	500 to 5000	69	1000 to 1500	500 to 5000	82	
COCCn1cc2c(n1)CN(C(=O)Nc1nc(-c3ccccc3F)ccc1N)C2 [Compound 8]	500 to 5000	72	100 to 1000	100 to 500	75	
COCCn1cc2c(n1)CN(C(=O)Nc1nc(-c3ccc(Cl)s3)ccc1N)C2 [Compound 6]	500 to 5000	69	> 1500	500 to 5000	82	
O=c1[nH]cc(F)c(=O)[nH]1 [Compound 5-FU, 5-Fluorouracil, reference compound]						exactly as expected
Nc1ccc(-c2ccc(F)cc2)nc1NC(=O)N1Cc2cc(CN3CC(F)C3)cnc2C1 [Comparator 7, reference compound]		35			82	
COCCn1cc2c(n1)CN(C(=O)Nc1nc(-c3cccs3)ccc1N)C2 [Comparator 3, reference compound]		18			9	
Nc1ccc(-c2ccc(F)cc2F)nc1NC(=O)N1Cc2cnc(CN3CC(F)C3)cc2C1 [Compound 4]	500 to 5000	62	1000 to 1500	100 to 500	102	
CCn1cc2c(n1)CN(C(=O)Nc1nc(-c3ccc(F)cc3F)ccc1N)C2 [Compound 10]	100 to 500	38	100 to 1000	100 to 500	77	
COCCn1cc2c(n1)CN(C(=O)Nc1nc(-c3ccc(F)cc3)ccc1N)C2 [Comparator 4, reference compound]		28			39	
Cc1nc2c(s1)CN(C(=O)Nc1nc(-c3ccc(F)cc3F)ccc1N)C2 [Compound 3]	500 to 5000	89	100 to 1000	100 to 500	109	

Now from value to compound, other results behind:

IC50 (HDAC2 [1]) [nM]	Erythroid % control remaining @ 10 uM dose [2] [%]	IC50 (HDAC2 [3]) [nM]	IC50 (HDAC1) [nM]	Myeloid % control remaining @ 10 uM dose [4] [%]	Compound	inhibitory effects as positive control for toxicity ([2]; erythroid and myeloid progenitor assays, 1.0, 0.1 and 0.01 μg/mL)
	33			70	COCc1ccc2c(n1)CN(C(=O)Nc1nc(-c3ccc(F)cc3)ccc1N)C2 [Comparator 8, reference compound]	
	45			103	Cc1nc2c(s1)CN(C(=O)Nc1nc(-c3ccc(F)cc3)ccc1N)C2 [Comparator 2, reference compound]	
	60			79	CCc1ncc2c(n1)CN(C(=O)Nc1nc(-c3ccc(F)cc3)ccc1N)C2 [Comparator 9, reference compound]	
	25.7			66.1	Cc1cc2c(cn1)CN(C(=O)Nc1nc(-c3ccc(F)cc3)ccc1N)C2 [Comparator 5, reference compound]	
	22			34	CCn1cc2c(n1)CN(C(=O)Nc1nc(-c3ccc(F)cc3)ccc1N)C2 [Comparator 1, reference compound]	
500 to 5000	69	100 to 1000	100 to 500	105	CCc1ncc2c(n1)CN(C(=O)Nc1nc(-c3ccc(F)cc3F)ccc1N)C2 [Compound 7]	
	22.9			58.9	COCc1cc2c(cn1)CN(C(=O)Nc1nc(-c3ccc(F)cc3)ccc1N)C2 [Comparator 6, reference compound]	
